Measured values from patent publication US8492418B2, “Method of treating schizophrenia prodrome” (Yale University, priority 2005, dated 2013).
Like-named read-outs stand apart in the source and are kept apart here.

How the values were obtained:
[1] = test system: chronic patients with persistent negative symptoms (schizophrenia); conditions: 157 chronic patients, four sites, adjunctive treatment vs placebo; cited from earlier work
[2] = target: glycine binding site of the NMDA receptor (Homo sapiens, UniProt Q05586); conditions: partial agonist; cited from earlier work
[3] = test system: prodromal patients (schizophrenia prodrome); assay: ongoing unpublished open label trial of ethyl-EPA, design nearly identical to the glycine pilot study; type: in vivo, human; conditions: 8 weeks, n=7
Text: Group SOPS change analysis. […] The effect sizes observed with glycine are substantially larger than those observed in my parallel studies with other medications (Table 2). Data for the placebo and olanzapine samples shown are from the published double blind randomized comparison of olanzapine vs placebo (Woods et al., 2003). […] The very large differences between the glycine effect sizes and the placebo effect sizes provide strong support for efficacy. The large differences between the glycine effect sizes and the olanzapine effect sizes are also impressive.

[4] = test system: acutely exacerbated patients (schizophrenia); conditions: 65 acutely exacerbated patients, in addition to antipsychotic; cited from earlier work
prodromal patients = conditions: risperidone plus cognitive therapy plus usual care; 59 patients randomized; cited from earlier work
[5] = test system: prodromal patients (schizophrenia prodrome)
Text: I therefore treated 10 patients meeting criteria for the schizophrenia prodrome with the NMDA […] glycine, used alone without antipsychotic medication. […] To my knowledge, this represents the first attempt to use direct or indirect NMDA/glycine agonists for patients with the schizophrenia prodrome.
The inventor of the present invention enrolled 10 prodromal patients in an eight-week open label trial of oral glycine. The patients were seven males and three females, whose mean±sd age was 17.3±3.3 years. All ten patients met schizophrenia prodrome diagnostic criteria, attenuated positive symptom subgroup, according to the Structured Interview for Prodromal Syndromes (Miller et al., 2002). The mean Scale of Prodromal Symptoms (SOPS) total score at baseline was 39.7, and the positive and negative subscale score means were respectively 11.3 and 12.4 (Table 1).
Glycine was administered orally as powder mixed with water at a dose titrated to 0.4 g/kg BID by week two. Concomitant medications were continued so long as there had been no dose adjustments in the eight weeks prior to enrollment and the patient continued to meet prodromal symptomatic criteria at baseline. Efficacy was assessed using the Scale of Prodromal Symptoms (SOPS). The SOPS consists of 19 items, each scored 0-6, and yields a total score and positive symptom (5 items), negative symptom (six items), disorganization (4 items), and general symptom (4 items) subscale scores.
Categorical outcomes. […] These criteria required all five positive symptom ratings to be below the prodromal range (2 or below).
Group SOPS change analysis. […] Data for the placebo and olanzapine samples shown are from the published double blind randomized comparison of olanzapine vs placebo (Woods et al., 2003). Data for ethyl-EPA (an omega-3 fatty acid) are from an ongoing unpublished open label trial that follows a design nearly identical to the current glycine pilot study.
To accomplish this we modified for the one sample case the sequential monitoring method of O'Brien and Fleming that protects the overall alpha from […] due to multiple looks (Woods and McGlashan, 2002). […] Analyses were planned every 5 patients.

[6] = 8 weeks, n=10, baseline score as covariate
[7] = 8 weeks, open label glycine, n=10
[8] = endpoint (LOCF) minus baseline, 8 weeks, n=10
[9] = oral glycine titrated to 0.4 g/kg BID, 8 weeks, LOCF, n=10

For `NC1CONC1=O` [D-cycloserine, 4-aminoisoxazolidin-3-one, reference compound], the “difference among treatment groups” value [1] is given as “no significant differences overall among groups” and the “activation relative to that seen with glycine, D-alanine or D-serine” value [2] is given as 40-60%.

In the case of `CC/C=C\C/C=C\C/C=C\C/C=C\C/C=C\CCCC(=O)OCC` [Ethyl-EPA, ethyl-EPA], the “SOPS LOCF within group effect size, DIS” value [3] is reported as −0.05, the “SOPS LOCF within group effect size, GEN” value [3] is reported as −0.17 and the “SOPS LOCF within group effect size, NEG” value [3] is reported as 0.24. The “SOPS LOCF within group effect size, POS” value [3] was 0.47 and the “SOPS LOCF within group effect size, TOTAL” value [3] was 0.18.

In the case of `CNCC(=O)O` [sarcosine], the separation from placebo [4] is given as “did”.

In the case of `N[C@H](CO)C(=O)O` [D-serine], the separation from placebo [4] is listed as “did not separate from placebo”.

In the case of `Cc1nc2n(c(=O)c1CCN1CCC(c3noc4cc(F)ccc34)CC1)CCCC2` [risperidone], the “six month conversion to psychosis rate” value (prodromal patients) is given as 9.7%.

For `NCC(=O)O` [Glycine, glycine], the “difference among treatment groups” value [1] is listed as “no significant differences overall among groups”, the “group SOPS change, LOCF analysis” value ([5]; 8 weeks, n=10) is listed as “improved significantly as a group on the total score and on all four subscales” and the “group SOPS change, MMRM analysis” value ([5]; 8 weeks, n=10) is listed as “improved significantly as a group on the total score and on 3/4 subscales”. For the same compound, the “MMRM-based within group SOPS improvement, DIS” value [5, 6] was 3.9 ± 2.2, the “MMRM-based within group SOPS improvement, GEN” value [5, 6] was 4.1 ± 3.5 and the “MMRM-based within group SOPS improvement, NEG” value [5, 6] was 3.0 ± 5.2. The “MMRM-based within group SOPS improvement, POS” value [5, 6] was 7.4 ± 3.2, the “MMRM-based within group SOPS improvement, TOTAL” value [5, 6] was 18.2 ± 9.9 and the “SOPS LOCF within group effect size, DIS” value [5, 7] was 1.05. For the same compound, the “SOPS LOCF within group effect size, GEN” value [5, 7] was 1.12, the “SOPS LOCF within group effect size, NEG” value [5, 7] was 0.74 and the “SOPS LOCF within group effect size, POS” value [5, 7] was 1.10. For the same compound, the “SOPS LOCF within group effect size, TOTAL” value [5, 7] was 1.39, the conversion to psychosis ([5]; 10 glycine-treated patients, 8 weeks) was “None of the glycine-treated patients converted to psychosis” and the “sequential monitoring vs historical placebo (sufficiency)” value ([5]; O'Brien and Fleming method modified for one sample) was “crossed the decision boundary for sufficiency after 10 patients”. The “SOPS DIS score, baseline mean” value ([5]; baseline, before glycine, disorganization subscale, n=10) was 6.5, the “SOPS GEN score, baseline mean” value ([5]; baseline, before glycine, general symptom subscale, n=10) was 9.5 and the “SOPS TOTAL score, baseline mean” value ([5]; baseline, before glycine, n=10) was 39.7. For the same compound, the “SOPS NEG score, baseline mean” value ([5]; baseline, before glycine, negative symptom subscale, n=10) was 12.4, the “SOPS POS score, baseline mean” value ([5]; baseline, before glycine, positive symptom subscale, n=10) was 11.3 and the “SOPS DIS endpoint change, mean” value [5, 8] was −3.1. For the same compound, the “SOPS GEN endpoint change, mean” value [5, 8] was −3.5, the “SOPS NEG endpoint change, mean” value [5, 8] was −3.0 and the “SOPS POS endpoint change, mean” value [5, 8] was −5.7. For the same compound, the “SOPS TOTAL endpoint change, mean” value [5, 8] was −15.3, the “early remission criteria met (all five positive symptom ratings 2 or below)” value ([5]; of the seven completers, during 8 weeks on glycine) was “three met early remission criteria” and the “SOPS DIS score, endpoint (LOCF) mean” value [5, 9] was 3.4. The “SOPS GEN score, endpoint (LOCF) mean” value [5, 9] was 6.0, the “SOPS NEG score, endpoint (LOCF) mean” value [5, 9] was 9.4 and the “SOPS POS score, endpoint (LOCF) mean” value [5, 9] was 5.6. For the same compound, the “SOPS TOTAL score, endpoint (LOCF) mean” value [5, 9] was 24.4.
